In patent US20180140703A1, “TUMOR RADIOSENSITIZATION WITH ANTIBODY CONJUGATES” (The Regents of the University California, priority 2016, published 2018):
Square brackets hold non-standard residues; d marks the D form. Peptide text beside a SMILES is read from it. * marks the point of attachment. Dolaproine = CO[C@@H]([C@@H]1CCCN1)[C@@H](C)C(=O)O; Dil = CC[C@H](C)[C@H](NC)[C@@H](CC(=O)O)OC; X1 = C[C@@H](N*)[C@@H](O)c1ccccc1; NMeV = CN[C@H](C(=O)O)C(C)C

How the values were obtained:
CAL-27 cells [1] = assay: Clonogenic assay (SF2); assay type: cell-based, human; details: drug overnight then 2 Gy, mertansine 5 nM
Experimental: Following IR, cells were counted, re-plated at varying cell numbers in drug-free media. […] Surviving fraction at 2 Gy (SF2) was calculated as the fraction of cells surviving 2 Gy compared with non-irradiated cells.

OE19 cells (HER2+) = assay: Neutral comet assay; assay type: cell-based, human
Experimental: (§1) Cells were collected 15 min post IR, suspended in agarose gel and lysed per assay directions (Trevigen). Samples underwent electrophoresis under neutral conditions and were then stained with Sybr Green. Comet tails were counted in multiple fields (>60 cells per sample) and analysed using CometScore (TriTek Corp). Comet tail length was normalized to vehicle-treated, non-irradiated cells.

[2] = test system: CALU3 (EGFR+, HER2+) cells; assay: Neutral comet assay; assay type: cell-based, human; details: 6 Gy, 2 nM overnight, vs vehicle or 20 nM antibody
Experimental: as §1

OE19 cells [3] = assay: Cell cycle (propidium iodide, flow cytometry); assay type: cell-based, human; details: treated overnight
Experimental: (§2) Cells were treated with RNAse, stained with propidium iodide (PI) and analysed by FACS using FloJo software.

CAL-27 cells [4] = assay: Cell cycle (propidium iodide, flow cytometry); assay type: cell-based, human; details: treated overnight
Experimental: as §2

CAL-27 cells [5] = assay: Phase contrast microscopy; assay type: cell-based, human; details: 2 nM overnight
Text: Cells were fixed at indicated times and imaged for Cy5 fluorescence (red). Nuclei stained with DAPI (blue). Scale bar, 10 gm. Representative images of three independent experiments. […] Nuclei stained with DAPI (blue). Scale bar, 10 gm. Representative images of three independent experiments. […] Representative data of two independent experiments. […] Representative images of three independent experiments. Scale bar, 50 gm.

[6] = test system: CAL-27 (EGRF+) and OE19 (HER2+) cells; assay: Alamar Blue cell viability assay; assay type: cell-based, human; details: dose range, 72-96 h
HER2+ tumor cells = assay: Neutral comet assay following 2 Gy, FIG. 8; assay type: cell-based
Text: Neutral comet assay to measure DNA double strand breaks following 2 Gy of ionizing radiation (IR). IR increased comet tail length by 2.8 fold comapred to non-irradiated cells.

CAL-27 tumour xenografts = assay: In vivo tumour xenograft experiments (tumour growth); design: species or system mice; details: non-irradiated tumours; day 0 dose: 0.5 nmol cetuximab or C-MMAE, 2 nmol free MMAE
Experimental: (§4) CAL-27, OE19, NCI N87 and HCT116 tumour xenografts were established and tumour growth was measured with digital calipers. Tumour volume was measured blindly to treatment group and calculated using the formula as 1/2×length×width. Mice were randomized into groups once the average tumour volume reached >100=113. […] For irradiated mice, the tumour-bearing hindlimbs were focally irradiated while the remainder of the mouse was shielded from IR with custom designed lead blocking >95% of the dose as verified by dosimeters placed on the mouse. […] To prevent unnecessary morbidity, mice were killed if tumour length exceeded 15 mm per protocol Nonlinear regression least squares fit was used to calculate tumour volume doubling times. […] To minimize the number of mice used, tumours were grown in the bilateral flanks.

[7] = test system: HER2 expressing tumor cells; tumor cell lines; assay: Cell survival by Alamar Blue assay, FIG. 7; assay type: cell-based; details: across tumor cell lines
Text: MMAF potency can be increased and cytotoxicity restricted by antibody conjugation. Cell survival measured by Alamar Blue assay.

HER2− cell lines = assay: Neutral comet assay; assay type: cell-based, human; details: HER2− cells; 20 nM overnight, 2 Gy
Experimental: as §1

HER2+ cell lines = assay: Neutral comet assay; assay type: cell-based, human; details: HER2+ cells; 20 nM overnight, 2 Gy
Experimental: as §1

HCT116 cells [8] = assay: Cell cycle (propidium iodide, flow cytometry); assay type: cell-based, human; details: treated overnight
Experimental: as §2

[9] = test system: cell lines irrespective of HER2 expression; assay: Alamar Blue cell viability assay, cells based on HER2 expression; design: species or system human; details: 72-96 h
HCT116 cells [10] = assay: Clonogenic assay (SF2); assay type: cell-based, human; details: 5 nM mertansine overnight then 2 Gy
Experimental: Following IR, cells were counted, re-plated at varying cell numbers in drug-free media. 10-14 days after initial seeding formed colonies were methanol fixed, stained with crystal violet and counted. Surviving fraction at 2 Gy (SF2) was calculated as the fraction of cells surviving 2 Gy compared with non-irradiated cells.

CAL-27 cells [11] = test system: CAL-27 cells
Experimental: (§3) Alamar Blue (resazurin) was added to the cells and allowed to incubate for 2-4 h at 37° C. Plates were analysed using a plate reader with fluorescence measured at 560 nm.

HER2+ tumours = details: combined with IR
Experimental: CAL-27, OE19, NCI N87 and HCT116 tumour xenografts were established and tumour growth was measured with digital calipers. […] Mice were assigned to indicated groups in ‘Results’. […] For irradiated mice, the tumour-bearing hindlimbs were focally irradiated while the remainder of the mouse was shielded from IR with custom designed lead blocking >95% of the dose as verified by dosimeters placed on the mouse. […] To minimize the number of mice used, tumours were grown in the bilateral flanks.

[12] = test system: OE19 (HER2+) tumour xenografts; assay: In vivo tumour xenograft experiments (tumour growth); design: species or system mice; details: for Tumour doubling time in days (mean, 95% CI): OE19
Experimental: as §4

OE19 tumour xenografts = assay: Immunohistochemistry of tumour xenografts (pHistone H3, cleaved caspase 3); assay type: in vivo, mice; details: OE19 tumours harvested 48 h after injection
Experimental: Tissue sections were cut from blocks of formalin-fixed paraffin embedded xenografts. Four micron thick tissue sections were stained with antibodies to phosphohistone H3 (pH3, Abcam, catalogue number ab32107) and cleaved caspase-3 (C1C3, Cell Signaling Technology, catalogue number 9661) and used at dilutions of 1:300 and 1:900, respectively. Slides were stained on a Ventana Discovery Ultra (Ventana Medical Systems, Tucson, Ariz., USA). Antigen retrieval was performed using CC1 for 24-40 min at 95° C. The primary antibodies were incubated on the sections for 1 h at 37° C. Primary antibodies were visualized used DAB as a chromagen using the UltraMap system (Ventana Medical systems) followed by hematoxylin as a counterstain. Slides were rinsed, dehydrated through alcohol and xylene and coverslipped.
Immununostained slides were scanned using an Axio Scan.Z1 (Zeiss; Oberkochen, Germany). […] Whole-slide images were imported into Definiens Software for quantitative analysis (Definiens; Munich, Germany). […] For analysis of pH3 (a nuclear stain), the total number of nuclei and the total number of nuclei showing DAB staining (pH3 positive cells) were recorded within each ROI. The percent of positive nuclei was then calculated for each sample. For analysis of C1C3 (a cytoplasmic stain), mean DAB chromagen intensity was measured and calculated within the ROI for each sample.

OE19 cells [13] = assay: Alamar Blue cell viability assay; assay type: cell-based, human; details: OE19 (HER2 cell line); 72-96 h
[14] = test system: HCT116 (HER2−) tumour xenografts; assay: In vivo tumour xenograft experiments (tumour growth); design: species or system mice; details: for Tumour doubling time in days (mean, 95% CI): HCT116
Experimental: as §4

HCT116 cells [15] = details: HCT116 (HER2−); 72-96 h
Experimental: as §3

[16] = test system: NCI N87 (gastric cancer) cells; details: NCI N87 (HER2 cell line); 72-96 h
Experimental: as §3

[17] = test system: NCI N87 (HER2+) tumour xenografts; assay: In vivo tumour xenograft experiments (tumour growth); design: species or system mice; details: for Tumour doubling time in days (mean, 95% CI): NCI N87
Experimental: as §4

[18] = 0.25 nmol day 0, 2.5 Gy days 1, 2 and 3
[19] = 0.25 nmol i.v. day 0 + IR 2.5 Gy days 1, 2 and 3, extrapolated

Compound: CC[C@H](C)[C@@H]([C@@H](CC(=O)N1CCC[C@H]1[C@H](OC)[C@@H](C)C(=O)N[C@H](C)[C@@H](O)c1ccccc1)OC)N(C)C(=O)[C@@H](NC(=O)[C@@H](NC)C(C)C)C(C)C [MMAE, monomethyl auristatin E] (H-[NMeV]V[Dil][Dolaproine]-X1)
- surviving fraction following 2 Gy (SF2) (CAL-27 cells [1]): decreased
- comet tail length after irradiation (OE19 cells (HER2+); 6 Gy, 2 nM overnight): further increased comet tail length
- comet tail length after irradiation [2]: increased comet tail length to a similar degree
- cell cycle profile (G2/M) (OE19 cells [3]): cells accumulating in G2/M
- cell cycle profile (G2/M) (CAL-27 cells [4]): cells accumulating in G2/M
- cell morphology (CAL-27 cells [5]): cells rounding up, indicative of G2/M
- cytotoxicity (cell viability) [6]: more potent compared with standard cytotoxic chemotherapies
- IR induced DNA damage (comet tail length) (HER2+ tumor cells): further increased IR induced DNA damage
- tumour growth (CAL-27 tumour xenografts): delayed tumour growth

Compound: CC[C@H](C)[C@@H]([C@@H](CC(=O)N1CCC[C@H]1[C@H](OC)[C@@H](C)C(=O)N[C@@H](Cc1ccccc1)C(=O)O)OC)N(C)C(=O)[C@@H](NC(=O)[C@@H](NC)C(C)C)C(C)C [MMAF] (H-[NMeV]V[Dil][Dolaproine]F-OH)
- potency compared to MMAE [7]: decreased potency compared to MMAE across tumor cell lines
- IR induced DNA damage (comet tail length) (HER2+ tumor cells): not

Compound: COc1cc2cc(c1Cl)N(C)C(=O)C[C@H](OC(=O)[C@H](C)N(C)C(=O)CCS)[C@]1(C)O[C@H]1[C@H](C)[C@@H]1C[C@@](O)(NC(=O)O1)[C@H](OC)/C=C/C=C(\C)C2 [mertansine]
- surviving fraction following 2 Gy (SF2) (CAL-27 cells [1]): decreased further
- radiosensitization (IR induced DNA double-strand breaks) (HER2− cell lines): radiosensitized by increasing IR induced DNA double-strand breaks in both HER2+ and HER2− cell lines
- radiosensitization (IR induced DNA double-strand breaks) (HER2+ cell lines): radiosensitized by increasing IR induced DNA double-strand breaks in both HER2+ and HER2− cell lines
- cell cycle profile (G2/M) (OE19 cells [3]): increased the accumulation of both OE19 and HCT116 cells in the radiosensitive G2/M phase
- cell cycle profile (G2/M) (HCT116 cells [8]): increased the accumulation of both OE19 and HCT116 cells in the radiosensitive G2/M phase
- IC50 ([9]; across cell lines, irrespective of HER2 expression): 0.01 µM
- surviving fraction following 2 Gy (SF2) (HCT116 cells [10]): decreased further

Compound: CC(=O)O[C@H]1C(=O)[C@@]2(C)[C@H]([C@H](OC(=O)c3ccccc3)[C@]3(O)C[C@H](OC(=O)[C@H](O)[C@@H](NC(=O)c4ccccc4)c4ccccc4)C(C)=C1C3(C)C)[C@]1(OC(C)=O)CO[C@@H]1C[C@@H]2O [paclitaxel]
- cytotoxic potency (comparison) (CAL-27 cells [11]; HER2− CAL-27 cells): more potent than T-DM1

Compound: ado-trastuzumab emtansine [T-DM1]
- radiosensitization (IR induced DNA double-strand breaks) (HER2− cell lines): appear inert to irradiated non-HER2 expressing cells
- radiosensitization (IR induced DNA double-strand breaks) (HER2+ cell lines): restricted radiosensitization of HER2+cells
- radiosensitization (comet tail length) (OE19 cells (HER2+); doses as low as 2 nM T-DM1): radiosensitized OE19 cells
- long term tumour control (survival curve) (HER2+ tumours): long term tumour control was observed
- tumour regression, combined with IR [12, 18]: significantly prolonged tumour regression
- Tumour doubling time in days (mean, 95% CI) [12, 19]: 66 (33+) days
- Tumour doubling time in days (mean, 95% CI) ([12]; 0.25 nmol i.v. day 0, no IR): 11 (8-17) days
- tumour control combined with IR vs other regimens ([12]; by day 22): superior to all other treatment
- tumour growth ([12]; single dose of 1 nmol, compared with control or trastuzumab by day 14): equally efficacious in slowing tumour growth
- cell cycle profile (G2/M) (OE19 cells [3]): blocked OE19 cells in G2/M
- cell cycle profile (G2/M) (HCT116 cells [8]): resembled vehide-treated cells
- apoptosis (cleaved caspase 3) in tumours (OE19 tumour xenografts): increased apoptosis
- cells in G2/M as measured by pS10 Histone H3 (OE19 tumour xenografts): increased the number of cells in radiosensitive G2/M phase
- IC50 (OE19 cells [13]): < 0.001 µM
- potency in relation to HER2 expression [9]: directly correlated with HER2 expression
- benefit of adding drug to IR [14, 18]: showed no benefit of adding T-DM1 to IR
- Tumour doubling time in days (mean, 95% CI) ([14]; 0.25 nmol i.v. day 0 + IR 2.5 Gy days 1, 2 and 3): 7 (5-12) days
- Tumour doubling time in days (mean, 95% CI) ([14]; 0.25 nmol i.v. day 0, no IR): 3 (2-5) days
- IC50 (CAL-27 cells [11]; CAL-27 (HER2−), 72-96 h): > 0.1 µM
- IC50 (HCT116 cells [15]): > 0.1 µM
- IC50 [16]: < 0.001 µM
- tumour regression, combined with IR [17, 18]: significantly prolonged tumour regression
- Tumour doubling time in days (mean, 95% CI) [17, 19]: 113 (82-179) days
- Tumour doubling time in days (mean, 95% CI) ([17]; 0.25 nmol i.v. day 0, no IR): 23 (21-25) days
- tumour control combined with IR vs other regimens ([17]; by day 32): superior to all other treatment
